Reference: PMC7672424 (Nucleic Acids Research, 2020)

What was measured:
TBA = test: CD melting, DNA stabilization; assay type: binding; conditions: 5 µM DNA, 20 µM BMPQ-1, 10 mM Tris-HCl, 50 mM KCl, pH 7.4
Method: CD studies were performed on a Chirascan circular dichroism spectrophotometer (Jasco, Easton, MD, USA). A quartz cuvette with a 1 mm path length was used to record the spectra over a wavelength range of 220–320 nm with a 1 nm bandwidth. All the samples were prepared in buffer containing 10 mM Tris–HCl pH 7.4, 100 mM KCl. To ensure the concentrations of G-quadruplex units to be 20 μM, multiple G-quadruplexes forming oligonucleotides with different concentrations were used (TTA (G1) 20 μM, TTA45 (G2) 10 μM, TTA69 (G3) 6.67 μM, TTA93 (G4) 5 μM, TTA117 (G5) 4 μM, TTA141 (G6) 3.33 μM). The DNA samples were heated at 95°C for 5 min and cooled down slowly to room temperature. 20, 40 and 60 μM BMPQ-1 were mixed with DNAs separately. Melting curves were measured at 295 nm and the range of temperature was 4–95°C.

[1] = tested on: dimeric G-quadruplexes (TTA45); test: Fluorescence response of BMPQ-1 to DNA; assay type: binding, human; conditions: 3 μM BMPQ-1, 2 μM TTA45, λex = 395 nm
Method: (§1) Figure 1. (A) Structure of BMPQ-1. (B) Fluorescence spectra of BMPQ-1 at λex = 395 nm in the absence or presence of dimeric G-quadruplexes (TTA45), monomeric G-quadruplexes (c-KIT1, c-KIT2, c-MYCPu22, TTA, VEGF, TBA), trinucleotide DNA (CGG12), duplex DNA (19AT) and single-stranded DNA (dT30). The concentration of BMPQ-1 was 3 μM. The concentration of TTA45 was 2 μM and DNAs with other structures were 4 μM. (C) Fluorescence spectra of 6 μM BMPQ-1 at λex = 395 nm in the absence or presence of 2 μM telomeric G-quadruplexes. Oligonucleotide samples were prepared in solution with 10 mM K2HPO4/KH2PO4, pH 7.0, 100 mM KCl. (D) Effect of BMPQ-1 on the CD spectra of 10 μM TTA45 in 10 mM Tris-HCl buffer (pH 7.4) containing 100 mM KCl.
(§2) G-quadruplex forming oligonucleotides were annealed in the buffer (10 mM K2HPO4/KH2PO4 pH 7.0, 100 mM KCl) by heating to 95°C for 5 min, followed by gradual cooling to room temperature. Fluorescence spectra were detected by RF-5301PC spectrofluorophotometer (Shimadzu, Japan) at room temperature. The spectra were recorded with 5 nm excitation and emission slit widths. […] For the fluorescence measurements between BMPQ-1 and different DNA sequences, the final concentrations of multimeric G-quadruplex forming oligonucleotides were 2 μM and other DNA oligonucleotides were 4 μM.

[2] = tested on: FAM-TTA45-Cy5 (DNA, G4) GGGTTAGGGTTAGGGTTAGGGTTAGGGTTAGGGTTAGGGTTAGGG; test: smFRET population titration; conditions: 100 mM K+; 10 mM Tris-HCl pH 7.4, 0.01% Tween 20, 1 mM ascorbic acid, 1 mM methylviologen, room temperature; apparent
[3] = tested on: monomeric G-quadruplexes (TBA, c-KIT1, c-KIT2, c-MYC Pu22, VEGF, TTA), duplex (19AT), single strand (dT30); test: Fluorescence response of BMPQ-1 to DNA; assay type: binding; conditions: 3 μM BMPQ-1, 4 μM other DNAs, λex = 395 nm
Method: as §1, §2

[4] = tested on: VEGF (DNA, G4) GGGAGGGTTGGGGTGGG; test: ligand fluorescence enhancement; conditions: 100 mM K+ (KCl) plus potassium phosphate; 10 mM K2HPO4/KH2PO4 pH 7.0; 3 µM compound, 4 µM DNA; enhancement below 3-fold
TTA45 = test: FRET melting assay, stabilization of TTA45; assay type: binding, human; conditions: 0.5 µM TTA45, 10 mM K2HPO4/KH2PO4, 100 mM KCl, pH 7.0
Method: Based on the conventional G-quadruplex ligand design ([46]), ∼400 compounds were selected from Chinese National Compound library of Peking University (PKU-CNCL). These compounds were evaluated for their ability to bind to TTA45 by Fluorescence Resonance Energy Transfer (FRET) assay (Supplementary Tables S1 and S2) ([47]). […] Compounds 21-38 were purchased to study their binding with TTA45 by FRET (Supplementary Table S3). […] page 4: Table S2. Stabilization of TTA45 as determined by FRET assays (continued). Compounds Structures ΔTm/°C Compounds Structures ΔTm/°C 23 10.3 25 14.6 […] OH 24 […] KCl, pH 7.0) was determined by FRET procedure, and Tm/°C were derived by their difference. The concentration of compounds 21-26 were 20 μM , and other compounds were 50 μM. FRET assay was carried out on the Real-Time PCR 3.2 machine (Analytik Jena, Germany). The total reaction volume was 20 μL with 0.5 μM of oligonucleotide labelled with FAM at the 3' end and TAMRA at 5' end in 10 mM K2HPO4/KH2PO4 (pH 7.0) containing 100 mM KCl. […] Then compounds with various concentrations were added into the DNA samples.

## Cc1ccc(Cn2cc3c(-c4ccc5c(c4)OCO5)nnc-3c3cc4c(cc32)OCO4)cc1 [BMPQ-1]
TBA
  ΔTm (°C) TBA: 4.7 °C
[1]
  fluorescence increase at 521 nm: 10 fold
[2]
  KD: 527 ± 68.9 nM
[3]
  fluorescence enhancement: less than 3 fold
[4]
  binding: weak
TTA45; 20 µM compounds
  ΔTm/°C, TTA45 stabilization by FRET (Table S3): 16.09 ± 1.79 °C
TTA45; compounds 21-26 20 µM
  ΔTm/°C, stabilization of TTA45 by FRET (Table S2): 16.1 °C
